Data published in patent publication US8658604B2, “Template-fixed beta-hairpin peptidomimetics with protease inhibitory activity” (Polyphor Ltd, priority 2005, dated 2014).
Like-named read-outs stand apart in the source and are kept apart here. Where a SMILES comes first, the peptide text is derived from it.

Experiments:
Chymase, from human skin = biological target: T1, Chymase, from human skin (Homo sapiens, UniProt P23946); assay: Enzymatic assay, chymase
T1 sequence (P23946 22-247): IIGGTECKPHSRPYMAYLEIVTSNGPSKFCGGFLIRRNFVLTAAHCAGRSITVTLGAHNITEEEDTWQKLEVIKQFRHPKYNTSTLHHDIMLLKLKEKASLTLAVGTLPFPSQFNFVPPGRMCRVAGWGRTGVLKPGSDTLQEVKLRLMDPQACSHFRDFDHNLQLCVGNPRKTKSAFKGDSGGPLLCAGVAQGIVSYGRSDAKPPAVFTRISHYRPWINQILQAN

[1] = tested on: Tryptase, from human lung; assay: Enzymatic assay, tryptase; conditions: at 100 μM
[2] = biological target: T2, CathepsinG, from human neutrophils (Homo sapiens, UniProt P08311); assay: Enzymatic assay, cathepsin G
T2 sequence (P08311 21-244): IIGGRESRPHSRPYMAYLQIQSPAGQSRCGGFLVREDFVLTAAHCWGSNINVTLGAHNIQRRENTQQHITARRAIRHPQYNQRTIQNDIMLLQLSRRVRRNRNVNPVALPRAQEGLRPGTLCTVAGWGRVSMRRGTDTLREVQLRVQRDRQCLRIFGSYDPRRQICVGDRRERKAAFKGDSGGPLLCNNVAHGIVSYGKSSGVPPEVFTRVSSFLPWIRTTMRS

[3] = biological target: Trypsin, from human pancreas (Homo sapiens, UniProt P07477); assay: Enzymatic assay, trypsin; conditions: at 100 μM
[4] = biological target: Urokinase from human urine (Homo sapiens, UniProt P00749); assay: Enzymatic assay, urokinase
HELA cells (Acc57) = assay: Cytotoxicity assay (MTT reduction), HELA cells; assay type: cell-based; conditions: Hela cells
Outline: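 HeLa cells were grown for 24 h, then exposed to peptides at 12.5, 25 and 50 μM in triplicate for 48 h at 37 °C. MTT reduction was read at 595 nm and growth % calculated relative to time-zero wells. LC50 interpolated by linear trend at −50% growth, GI50 at 50%.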

[5] = biological target: Coagulation Factor Xa, from uman plasma (Homo sapiens, UniProt P00742); assay: Enzymatic assay, coagulation factor Xa
Sequence of Coagulation Factor Xa, from uman plasma (P00742 235-488 limits assumed): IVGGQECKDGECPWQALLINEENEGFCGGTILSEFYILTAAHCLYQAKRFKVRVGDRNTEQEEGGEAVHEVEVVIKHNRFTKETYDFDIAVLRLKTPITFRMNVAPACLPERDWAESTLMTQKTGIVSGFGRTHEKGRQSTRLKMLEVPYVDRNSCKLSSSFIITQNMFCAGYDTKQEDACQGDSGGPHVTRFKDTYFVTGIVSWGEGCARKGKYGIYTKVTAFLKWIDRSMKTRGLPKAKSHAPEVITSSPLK
Sequence of Coagulation Factor Xa, from uman plasma (P00742 41-179 limits assumed): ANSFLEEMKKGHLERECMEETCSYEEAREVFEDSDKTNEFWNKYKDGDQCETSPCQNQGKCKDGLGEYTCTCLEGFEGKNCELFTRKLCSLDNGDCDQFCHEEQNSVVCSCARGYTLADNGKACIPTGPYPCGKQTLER

[6] = biological target: T3, Elastase from human neutrophils (Homo sapiens, UniProt P08246); assay: Enzymatic assay, elastase
T3 sequence (P08246 30-267): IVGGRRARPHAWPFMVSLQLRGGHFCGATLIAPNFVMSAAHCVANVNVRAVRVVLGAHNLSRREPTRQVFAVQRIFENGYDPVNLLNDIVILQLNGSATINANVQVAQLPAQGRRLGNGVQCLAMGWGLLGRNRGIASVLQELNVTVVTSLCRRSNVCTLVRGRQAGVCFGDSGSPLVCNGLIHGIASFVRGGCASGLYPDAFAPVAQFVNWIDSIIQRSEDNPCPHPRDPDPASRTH

[7] = biological target: Thrombin, from Human Plasma (Homo sapiens, UniProt P00734); assay: Enzymatic assay, thrombin
[8] = biological target: Chymotrypsin, from human pancreas (Homo sapiens, UniProt P17538); assay: Enzymatic assay, chymotrypsin; conditions: at 100 μM
Sequence of Chymotrypsin, from human pancreas (P17538 19-263): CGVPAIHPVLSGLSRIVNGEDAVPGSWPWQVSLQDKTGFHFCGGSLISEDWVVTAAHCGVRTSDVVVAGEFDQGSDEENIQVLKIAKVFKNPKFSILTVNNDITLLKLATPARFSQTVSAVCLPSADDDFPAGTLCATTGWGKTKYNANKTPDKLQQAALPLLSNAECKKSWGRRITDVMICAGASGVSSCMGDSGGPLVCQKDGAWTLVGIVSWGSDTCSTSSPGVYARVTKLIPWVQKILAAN

[9] = tested on: human red blood cells (hRBC); assay: Hemolysis
Method: The peptides were tested for their hemolytic activity against human red blood cells (hRBC). Fresh hRBC were washed three times with phosphate buffered saline (PBS) by centrifugation for 10 min at 2000×g. Peptides at a concentration of 100 μM were incubated with 20% v/v hRBC for 1 hour at 37° C. The final erythrocyte concentration was approximately 0.9×10^9 cells per ml. A value of 0% and, respectively, 100% cell lysis was determined by incubation of the hRBC in the presence of PBS alone and, respectively, 0.1% Triton X-100 in H2O. […] The 100% lysis value (OD540H20) gave an OD540 of approximately 1.3-1.8. Percent hemolysis was calculated as follows: (OD540peptide/OD540H20)×100%.

Structure (SMILES)	Chymase at 100 μM % (Chymase, from human skin)	Tryptase at 100 μM % [1]	IC50 ([2]; Cathepsin G IC50)	Trypsin at 100 μM % [3]	Urokinase at 100 μM % [4]	Cytotoxicity LC50/GI50 Hela cells (HELA cells (Acc57))	FXa at 100 μM % [5]	IC50 ([6]; Elastase IC50)	Thrombin at 100 μM % [7]	Chymotrypsin at 100 μM % [8]	Hemolysis at 100 μM % [9]	IC50 ([2]; read-out: Cathepsin G IC50)	IC50 ([6]; read-out: Elastase IC50)
CC[C@H](C)[C@@H]1NC(=O)[C@@H]2CCCN2C(=O)[C@@H]2CCCN2C(=O)[C@H](CC(=O)O)NC(=O)[C@H](CO)NC(=O)[C@H](CCCCN)NC(=O)[C@H]([C@@H](C)O)NC(=O)[C@@H]2CSSC[C@H](NC1=O)C(=O)N[C@@H](Cc1ccc(O)cc1)C(=O)N1CCC[C@@H]1C(=O)N1CCC[C@H]1C(=O)N[C@@H](C1CCCCC1)C(=O)N2 [Ex. 40] (HELM PEPTIDE1{[O=C([C@@H](N[*:1])C1CCCCC1)[*:2]].C.T.K.S.D.P.P.I.C.Y.[dP].P}$PEPTIDE1,PEPTIDE1,2:R3-10:R3|PEPTIDE1,PEPTIDE1,1:R1-13:R2$$$V2.0)	8%	33%	0.025 µM	94%	10%	97 µM	3%	> 44.9 µM	1%	19%	0.1%		
CCCC[C@@H]1NC(=O)[C@@H]2CCCN2C(=O)[C@H]2CCCN2C(=O)[C@H](Cc2ccc(O)cc2)NC(=O)[C@@H]2CSSC[C@H](NC1=O)C(=O)N[C@@H]([C@@H](C)O)C(=O)N[C@@H](CCCCN)C(=O)N[C@@H](CO)C(=O)N[C@@H](CC(=O)O)C(=O)N1CCC[C@H]1C(=O)N1CCC[C@H]1C(=O)N[C@@H]([C@@H](C)CC)C(=O)N2 [Ex. 44] (HELM PEPTIDE1{[Nle].C.T.K.S.D.P.P.I.C.Y.[dP].P}$PEPTIDE1,PEPTIDE1,2:R3-10:R3|PEPTIDE1,PEPTIDE1,1:R1-13:R2$$$V2.0)	3%	50%	0.031 µM	100%	14%	67 µM	9%	> 10 µM	9%	24%	0.1%		
CC[C@H](C)[C@@H]1NC(=O)[C@@H]2CCCN2C(=O)[C@@H]2CCCN2C(=O)[C@H](CC(=O)O)NC(=O)[C@H](CO)NC(=O)[C@H](CCCCN)NC(=O)[C@H]([C@@H](C)O)NC(=O)[C@@H]2CSSC[C@H](NC1=O)C(=O)N[C@@H](CO)C(=O)N1CCC[C@@H]1C(=O)N[C@@H](CC(=O)O)C(=O)N[C@@H](Cc1ccccc1)C(=O)N2 [Ex. 47] (HELM PEPTIDE1{F.C.T.K.S.D.P.P.I.C.S.[dP].D}$PEPTIDE1,PEPTIDE1,2:R3-10:R3|PEPTIDE1,PEPTIDE1,1:R1-13:R2$$$V2.0)	8.2%	0%	0.064 µM	87%	6.3%	100 µM	9.3%	> 10 µM	0%	1%	0%		
CC[C@H](C)[C@@H]1NC(=O)[C@H](C)NC(=O)[C@@H]2CCCN2C(=O)[C@H](CC(=O)O)NC(=O)[C@H](CO)NC(=O)[C@H](CCCCN)NC(=O)[C@H]([C@@H](C)O)NC(=O)[C@@H]2CSSC[C@H](NC1=O)C(=O)N[C@@H](CCCNC(=N)N)C(=O)N1CCC[C@@H]1C(=O)N1CCC[C@H]1C(=O)N[C@@H]([C@@H](C)CC)C(=O)N2 [Ex. 52] (HELM PEPTIDE1{I.C.T.K.S.D.P.A.I.C.R.[dP].P}$PEPTIDE1,PEPTIDE1,2:R3-10:R3|PEPTIDE1,PEPTIDE1,1:R1-13:R2$$$V2.0)	42.3%	84.2%		86%	5.4%	100 µM	6%		8.7%	0%	0%	0.052 µM	> 100 µM
